# Reference: patent US11236069B2, “KIF18A inhibitors” (AMGEN INC., priority 2018, dated 2022)
# Molecular target: Recombinant human KIF18A (1-467 His-tagged) protein (Homo sapiens (Human), UniProt Q8NI77)
# Test: KIF18A Enzyme Assay: microtubule-stimulated ATPase activity (ADP-Glo)
# Conditions: read-out: KIF18A ATPase IC50; 30 nM KIF18A, 30 μg/mL pig microtubules, ATP at Km 75 μM, ADP-Glo luminescence
# Excerpt: KIF18A Enzyme Assay: Microtubule-stimulated ATPase activity assay is used to measure KIF18A enzyme activity after treatment with compound. Compounds were 2-fold serially diluted in DMSO (Sigma Inc) over 22-point concentration range. […] The assay measures ADP formed from the ATPase reaction.
# Recombinant human KIF18A (1-467 His-tagged) protein, sequence (Q8NI77 1-467): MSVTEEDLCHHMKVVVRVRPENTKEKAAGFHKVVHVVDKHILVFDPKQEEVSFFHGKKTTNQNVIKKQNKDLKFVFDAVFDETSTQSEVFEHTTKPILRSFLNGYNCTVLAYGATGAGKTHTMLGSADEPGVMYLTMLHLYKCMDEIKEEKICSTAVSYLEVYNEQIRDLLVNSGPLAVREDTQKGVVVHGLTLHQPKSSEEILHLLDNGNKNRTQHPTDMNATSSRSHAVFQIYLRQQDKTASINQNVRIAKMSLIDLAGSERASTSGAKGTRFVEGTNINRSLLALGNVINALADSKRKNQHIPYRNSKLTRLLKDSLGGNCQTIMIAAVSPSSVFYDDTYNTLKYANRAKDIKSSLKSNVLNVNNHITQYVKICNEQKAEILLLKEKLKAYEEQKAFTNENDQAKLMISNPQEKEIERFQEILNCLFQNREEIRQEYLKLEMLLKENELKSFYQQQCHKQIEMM
# Recombinant human KIF18A (1-467 His-tagged) protein, sequence (P02550 whole entry partner): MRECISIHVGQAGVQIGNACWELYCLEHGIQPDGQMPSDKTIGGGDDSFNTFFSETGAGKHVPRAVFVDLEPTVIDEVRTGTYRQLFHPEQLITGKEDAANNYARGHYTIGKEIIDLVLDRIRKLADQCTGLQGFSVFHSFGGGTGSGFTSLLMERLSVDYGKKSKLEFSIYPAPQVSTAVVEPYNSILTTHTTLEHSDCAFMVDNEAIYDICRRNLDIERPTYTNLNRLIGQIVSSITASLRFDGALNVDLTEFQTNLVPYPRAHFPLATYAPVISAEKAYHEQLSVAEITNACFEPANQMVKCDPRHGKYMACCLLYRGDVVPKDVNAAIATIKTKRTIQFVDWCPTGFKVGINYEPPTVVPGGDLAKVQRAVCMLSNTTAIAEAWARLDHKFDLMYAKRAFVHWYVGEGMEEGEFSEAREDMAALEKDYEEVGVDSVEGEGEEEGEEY
# Recombinant human KIF18A (1-467 His-tagged) protein, sequence (P02554 whole entry partner): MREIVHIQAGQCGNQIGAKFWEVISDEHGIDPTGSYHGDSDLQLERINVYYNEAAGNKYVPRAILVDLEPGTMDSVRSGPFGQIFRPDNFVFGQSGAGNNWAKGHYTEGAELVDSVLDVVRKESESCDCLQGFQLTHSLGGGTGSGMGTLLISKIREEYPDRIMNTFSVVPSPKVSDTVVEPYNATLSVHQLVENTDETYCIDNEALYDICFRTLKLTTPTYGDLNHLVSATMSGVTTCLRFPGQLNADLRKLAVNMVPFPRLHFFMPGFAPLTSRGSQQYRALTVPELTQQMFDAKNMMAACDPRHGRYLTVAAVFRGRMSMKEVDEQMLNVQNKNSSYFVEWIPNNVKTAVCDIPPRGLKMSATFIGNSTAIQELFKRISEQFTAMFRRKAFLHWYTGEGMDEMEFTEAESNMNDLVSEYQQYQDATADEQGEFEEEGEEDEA
row,IC50,Compound
1,935 nM,"Cc1cc(NC(=O)c2ccc(NS(=O)(=O)CCO)cc2N2CCC3(CC2)CC3)nc(N2CC(C)(O)C2)n1 [Example 11-15, N-(2-(3-Hydroxy-3-methylazetidin-1-yl)-6-methylpyrimidin-4-yl)-4-((2-hydroxyethyl)sulfonamido)-2-(6-azaspiro[2.5]octan-6-yl)benzamide]"
2,73 nM,"Cc1cc(NC(=O)c2cc(F)c(NS(=O)(=O)[C@@H](C)CO)cc2N2CCC3(CC2)CC3)nc(N2CCC(F)(F)CC2)n1 (single isomer, unassigned) [Example 8-2]"
3,82 nM,"Cc1cc(NC(=O)c2ccc(NS(=O)(=O)CCO)cc2N2CCC3(CC2)CC3)nc(N2CCCCC2)n1 [Example 11-36, 4-((2-Hydroxyethyl)sulfonamido)-N-(6-methyl-2-(piperidin-1-yl)pyrimidin-4-yl)-2-(6-azaspiro[2.5]octan-6-yl)benzamide]"
4,151 nM,"Cc1cc(NC(=O)c2ccc(NS(=O)(=O)C(C)C)cc2N2CCC3(CC2)CC3)nc(N2CCC(F)(F)CC2)n1 [Example 6-22, N-(2-(4,4-Difluoropiperidin-1-yl)-6-methylpyrimidin-4-yl)-4-((1-methylethyl)sulfonamido)-2-(6-azaspiro[2.5]octan-6-yl)benzamide]"
5,1010 nM,"Cc1cc(NC(=O)c2ccc(NS(=O)(=O)CCO)cc2N2CCC3(CC2)CC3)nc(N2CC(O)(C3CC3)C2)n1 [Example 11-16, N-(2-(3-Cyclopropyl-3-hydroxyazetidin-1-yl)-6-methylpyrimidin-4-yl)-4-((2-hydroxyethyl)sulfonamido)-2-(6-azaspiro[2.5]octan-6-yl)benzamide]"
6,147 nM,"Cc1cc(NC(=O)c2ccc(S(=O)(=O)N[C@@H](C)CO)cc2N2CCC3(CC2)CC3)nc(N2CCC(F)(F)CC2)n1 [Example 17-7, (S)-N-(2-(4,4-Difluoropiperidin-1-yl)-6-methylpyrimidin-4-yl)-4-(N-(1-hydroxypropan-2-yl)sulfamoyl)-2-(6-azaspiro[2.5]octan-6-yl)benzamide]"
7,49 nM,"Cc1cc(NC(=O)c2ccc(NS(=O)(=O)CCO)cc2N2CCC3(CC2)CC3)nc(C2CC2)n1 [Example 11-3, N-(2-Cyclopropyl-6-methylpyrimidin-4-yl)-4-((2-hydroxyethyl)sulfonamido)-2-(6-azaspiro[2.5]octan-6-yl)benzamide]"
8,122 nM,"CCS(=O)(=O)Nc1ccc(C(=O)Nc2cc(C)nc(N3CCC(F)(F)CC3)n2)c(N2CCC3(CC2)CC3)c1 [Example 6-7, N-(2-(4,4-Difluoropiperidin-1-yl)-6-methylpyrimidin-4-yl)-4-(ethylsulfonamido)-2-(6-azaspiro[2.5]octan-6-yl)benzamide]"
9,107 nM,"Cc1cc(NC(=O)c2ccc(NS(=O)(=O)CCCO)cc2N2CCC3(CC2)CC3)nc(N2CCO[C@H](C)C2)n1 [Example 6-8, (R)-4-((3-Hydroxypropyl)sulfonamido)-N-(6-methyl-2-(2-methylmorpholino)pyrimidin-4-yl)-2-(6-azaspiro[2.5]octan-6-yl)benzamide]"
10,114 nM,"COc1cc(C(=O)Nc2cc(C)nc(N3CCC(F)(F)CC3)n2)c(N2CCC3(CC2)CC3)cc1NS(=O)(=O)CCO [Example 6-36, N-(2-(4,4-Difluoropiperidin-1-yl)-6-methylpyrimidin-4-yl)-4-((2-hydroxyethyl)sulfonamido)-5-methoxy-2-(6-azaspiro[2.5]octan-6-yl)benzamide]"
11,86 nM,"Cc1cc(NC(=O)c2ccc(NS(=O)(=O)CCCO)cc2N2CCC3(CC2)CC3)nc(N2CCC(F)(F)CC2)n1 [Example 6-15, N-(2-(4,4-Difluoropiperidin-1-yl)-6-methylpyrimidin-4-yl)-4-((3-hydroxypropyl)sulfonamido)-2-(6-azaspiro[2.5]octan-6-yl)benzamide]"
12,32 nM,"Cc1cc(NC(=O)c2ccc(S(=O)(=O)NC3(C)COC3)cc2N2CCC3(CC2)CC3)nc(OCCC(F)(F)F)n1 [Example 1-6, N-(6-Methyl-2-(3,3,3-trifluoropropoxy)pyrimidin-4-yl)-4-(N-(3-methyloxetan-3-yl)sulfamoyl)-2-(6-azaspiro[2.5]octan-6-yl)benzamide]"
13,163 nM,"Cc1cc(NC(=O)c2ccc(S(=N)(=O)C3COC3)cc2N2CCC3(CC2)CC3)nc(N2CCC(F)(F)CC2)n1 (stereo not drawn) [Example 19-1, N-(2-(4,4-Difluoropiperidin-1-yl)-6-methylpyrimidin-4-yl)-4-(oxetane-3-sulfonimidoyl)-2-(6-azaspiro[2.5]octan-6-yl)benzamide]"
14,205 nM,"Cc1cc(NC(=O)c2ccc(NS(=O)(=O)CCO)cc2N2CCC3(CC2)CC3)nc(N2CCC2)n1 [Example 11-19, N-(2-(Azetidin-1-yl)-6-methylpyrimidin-4-yl)-4-((2-hydroxyethyl)sulfonamido)-2-(6-azaspiro[2.5]octan-6-yl)benzamide]"
15,125 nM,"CC(C)(O)c1cc(NC(=O)c2ccc(NS(=O)(=O)CCO)cc2N2CCC3(CC2)CC3)nc(N2CCC(F)(F)CC2)n1 [Example 6-37, N-(2-(4,4-Difluoropiperidin-1-yl)-6-(2-hydroxypropan-2-yl)pyrimidin-4-yl)-4-((2-hydroxyethyl)sulfonamido)-2-(6-azaspiro[2.5]octan-6-yl)benzamide]"
16,192 nM,"Cc1cc(NC(=O)c2ccc(NS(=O)(=O)CCO)cc2N2CCC3(CC2)CC3)nc(N2CC(OC(F)F)C2)n1 [Example 11-10, N-(2-(3-(Difluoromethoxy)azetidin-1-yl)-6-methylpyrimidin-4-yl)-4-((2-hydroxyethyl)sulfonamido)-2-(6-azaspiro[2.5]octan-6-yl)benzamide]"
17,21 nM,"C[C@H](CO)S(=O)(=O)Nc1ccc(C(=O)Nc2ccnc(N3CCC(F)(F)CC3)n2)c(N2CCC3(CC2)CC3)c1 [Example 6-26-2, (R)-N-(2-(4,4-Difluoropiperidin-1-yl)pyrimidin-4-yl)-4-((2-hydroxy-1-methylethyl)sulfonamido)-2-(6-azaspiro[2.5]octan-6-yl)benzamide]"
18,43 nM,"Cc1cc(NC(=O)c2ccc(NS(=O)(=O)CCO)cc2N2CCC3(CC2)CC3)nc(N2CCC[C@H](C#N)C2)n1 [Example 11-35, (S)-N-(2-(3-Cyanopiperidin-1-yl)-6-methylpyrimidin-4-yl)-4-((2-hydroxyethyl)sulfonamido)-2-(6-azaspiro[2.5]octan-6-yl)benzamide]"
19,17 nM,"O=C(Nc1ccnc(N2CCC(F)(F)CC2)c1)c1ccc(NS(=O)(=O)CCO)cc1N1CCC2(CC1)CC2 [Example 6-29, N-(2-(4,4-Difluoropiperidin-1-yl)pyridin-4-yl)-4-((2-hydroxyethyl)sulfonamido)-2-(6-azaspiro[2.5]octan-6-yl)benzamide]"
20,413 nM,"Cc1cc(NC(=O)c2ccc(NS(=O)(=O)C(C)(C)C)cc2N2CCC3(CC2)CC3)nc(N2CCC(F)(F)CC2)n1 [Example 6-14, N-(2-(4,4-Difluoropiperidin-1-yl)-6-methylpyrimidin-4-yl)-4-((1,1-dimethylethyl)sulfonamido)-2-(6-azaspiro[2.5]octan-6-yl)benzamide]"
21,68 nM,"Cc1cc(NC(=O)c2ccc(NS(=O)(=O)C[C@@H](C)O)cc2N2CCC3(CC2)CC3)nc(OCCC(F)(F)F)n1 [Example 6-28-1, (R)-4-((2-Hydroxypropyl)sulfonamido)-N-(6-methyl-2-(3,3,3-trifluoropropoxy)pyrimidin-4-yl)-2-(6-azaspiro[2.5]octan-6-yl)benzamide]"
